Source: PMC7156724, “Potent BRD4 inhibitor suppresses cancer cell-macrophage interaction” (Nature Communications, 2020)
“And” between values parts separate entries of the source, which are not always exact repeats. Equal entries are not always repeated.

What was measured:
[1] = Body weight change of H526 SCLC tumor bearing mice; settings: for Mouse body weight changes (%) from Day 0: 3mg/kg, QDx21D, 3 mg/kg
H526 tumors = experiment: Immunofluorescent staining of cleaved caspase 3 and Ki67 in H526 tumors; type: in vivo, mouse; settings: treated H526 tumors, independent images
Procedure: Immunofluorescence staining of tumor sections was performed according to the manufacturer’s instructions. Slides were imaged using a Zeiss Axiovert 200 fluorescence microscope (Carl Zeiss MicroImaging; Thornwood, NY), and images were captured using Openlab3 software (Imprecision, Lexington, MA). Cleaved caspase 3, Ki67, CSF1, and CD68 positive cells were counted with ImageJ version 1.52s[58].
Supplementary Figure 10. NHWD-870 increased tumor apoptosis and inhibite d tumor proliferation.
(a,b) Immunofluorescent staining of cleaved caspase 3 (apoptotic cells, red) and E-Cadherin (cancer cells, […]
green) in vehicle, NHWD-870 or BMS-986158 treated H526 tumors from Figure 4a. Shown are […]
representative images of cleaved caspase 3 positive cells (a) and quantification of cleaved caspase 3 positive […]
cells (b). Scale bar is 30 μm. Data are presented as mean ± SEM from 6 independent images. p values were […]
calculated using two-tailed, unpaired t tests. **, p<0.01; ***, p<0.001. (c,d) Immunofluorescent staining of […]
Ki67 (proliferating cells, red) and E-Cadherin (cancer cells, green) in vehicle, NHWD-870 or BMS-986158 […]
treated H526 tumors from (Figure 4a). Shown are representative images of Ki67 positive cells (c) and […]
quantification of Ki67 positive cells (d). Scale bar is 30 μm. […]
independent images. p values were calculated using two-tailed, unpaired t tests. *, p<0.05; ***, p<0.001. […]

[2] = system: NCI-H211 small cell lung cancer (SCLC) cells; experiment: AlamarBlue assay, NCI-H211; type: cell-based; settings: for Cellular activity in SCLCs (H211), alamarBlue: Fig.1e, replicates
In short: (§1)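 BRD4 (BD1+BD2) binding to acetylated histone H4 was measured with a TR-FRET kit per the kit protocol. For the AlamarBlue assays, MDA-MB231, NCI-H211 and A375 cells were plated at ~30% confluence, adhered overnight and treated. Resazurin (0.3 mg/ml reagent) was added for 18 h and fluorescence read at ex 530/em 590 nm.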

[3] = system: MDA-MB231 triple negative breast cancer (TNBC) cells; experiment: AlamarBlue assay, MDA-MB231; type: cell-based, human; settings: for Cellular activity in TNBCs (MDA-MB231), alamarBlue: Fig.1f, replicates
In short: as §1

A375 human melanoma = A375 human melanoma xenograft tumor growth; type: in vivo, mouse
Source text: PO, oral administration; QD, once daily; BID, twice daily. b–d Tumor growth curves for A2780 ovarian tumor (n = 5) (b), TMD8 large B cell lymphoma (n = 6) (c), and B16F10 melanoma (n = 5) (d) bearing mice treated with the indicated compounds once daily for 11-21 days. e, f Tumor growth curves for A375 melanoma (n = 6) (e), and patient-derived xenograft (PDX) of melanoma (n = 5) (f) bearing mice treated with the indicated compounds once daily (5 days on, 2 days off) for 21 days. For d–f, NHWD-870 used is NHWD-870-HCl synthesized using Suzuki coupling route. Data are presented as mean ± SEM in (a, b, d, f) and mean + SEM in (c, e). p values were calculated using two-tailed, unpaired t tests. *p < 0.05; **p < 0.01; ***p < 0.001. Source data are provided as a Source Data file.
4–6 weeks old female BALB/c nude mice were used for most experiments, with the exception of 6–8 weeks old female C57BL/6 mice were used for B16F10 experiments, and 6–8 weeks old male BALB/c nude mice and SD rats were used for pharmacokinetic experiments. All animals were purchased from Shanghai SIPPR-Bk Lab Animal Co., Ltd. All animals were housed under a regimen of 12 h light/12 h dark cycles and specific pathogen-free conditions. 5×10^6 NCI-H526, ES-2, MDA-MB231, A2780, A375, B16F10, and TMD-8 cells (0.1 ml) were injected subcutaneously into female nude mice. The melanoma patient-derived xenograft model was derived from a human melanoma sample (BRAF, NARS and NF1 wild type, and p53 mutant) removed from a patient in Xiangya Hospital. Surgically removed tumor fragments were implanted subcutaneously into female NSG mice. When the tumors grew to ~1000 mm^3, they were harvested and cryopreserved or immediately re-implanted for expansion or experiments. Mouse body weight and tumor sizes were measured every 3 days. Once the tumors grew to 150–200 mm^3, mice were treated with the compounds as described in the Figures. 1 × 10^6 A2780 cells (1 ml) were injected into the abdominal cavity of nude mice. Ascitic volume and tumor weight were measured by an electronic balance. All the procedures were evaluated and approved by the Institutional Animal Care and Use Committee of Central South University and Yale University. […]
We apologize for not clearly labeling the experiments using compounds synthesized using Suzuki coupling method. In the revised manuscript, we modified the text to clearly mark the animal models in Fig 3d-f were tested using NHWD-870 synthesized using Suzuki […]
compared the activity of NHWD-870 synthesized using Stille coupling route with the NHWD-870 synthesized from Suzuki coupling route (Reviewer Figure 1). […]
activity and possible toxicity were identical.
Reviewer Figure 1 NHWD-870 synthesized through Stille or Suzuki route has similar properties in vivo. Tumor bearing mice were treated with 2mg/kg of the indicated compounds, orally administrated once daily for 21 days. Shown are tumor growth curves (a) and body weight change (b) for A375 melanoma bearing mice. […]
986158 in terms of potency, but apart from with the A375 melanocyte cell line, the advance seems relatively moderate. With such similar compounds, the pharmacokinetic properties and ability to accumulate at the desired site is often more important. Figure S6d (prev. Fig. 3d) in the previous

For `Cc1nnn(C)c1-c1cnc2c3c4cnn(C)c4ccc3n([C@H](c3ccccc3)C3CCOCC3)c2c1` [NHWD-870], which “Body weight change (%)” value ([1]; 3mg/kg,QD, day 0 and day 20 or the last available data point, individual mice) is on record?
Its value is -7.583% and -7.971% and -2.299% and 0.4517%.

And the “Mouse body weight changes (%) from Day 0” value ([1]; Day 3, individual mice)?
Its value is -0.08% and -2.62% and -1.34% and 1.57% and 0.13% and 1.52%.

And the “Mouse body weight changes (%) from Day 0” value ([1]; Day 7, individual mice)?
Its value is -7.05% and -0.52% and -4.19% and 1.94% and -3.62% and 0.82%.

What about the “Mouse body weight changes (%) from Day 0” value ([1]; Day 10, individual mice) of the same compound?
The value was -10.82% and -3.48% and 3.84% and -1.13% and -5.35% and 3.04%.

What about the “Mouse body weight changes (%) from Day 0” value ([1]; Day 14, individual mice) of the same compound?
Its value is -1.11% and -16.35% and -6.33% and 0.59% and -10.57% and -3.67%.

And the “Mouse body weight changes (%) from Day 0” value ([1]; Day 17, individual mice)?
Its value is 3.90% and -4.84% and -5.58% and -1.24% and -10.06% and -0.93%.

What about the “Mouse body weight changes (%) from Day 0” value ([1]; Day 20, individual mice) of the same compound?
Its value is 0.45% and -8.20% and -7.58% and -7.97% and -11.87% and -2.30%.

And the body weight loss ([1]; H526 SCLC tumor bearing mice, 3mg/kg QD)?
The body weight loss was “about 6%”.

What about the “% of KI67 (Ki67 positive cells)” value (H526 tumors) of the same compound?
The value was 10% and 8% and 13% and 11% and 6%.

And the “fold increased potency versus BMS-986158” value ([2]; Fig 1e, f)?
The value was 3 fold.

And the “Cellular activity in SCLCs (H211), alamarBlue” value (“Cellular activity in SCLCs” below) ([2]; concentration 0.0169701)?
The value was 15.41 and 2.82.

What about the “Cellular activity in SCLCs” value ([2]; concentration 0.0398488) of the same compound?
Its value is 10.96 and 4.35.

What about the “Cellular activity in SCLCs” value ([2]; concentration 0.137272) of the same compound?
Its value is 28.76 and 26.98.

What about the “Cellular activity in SCLCs” value ([2]; concentration 0.614394) of the same compound?
The value was 86.83 and 87.53.

And the “Cellular activity in SCLCs” value ([2]; concentration 1.09152)?
Its value is 89.61 and 89.15.

And the “Cellular activity in SCLCs” value ([2]; concentration 1.56864)?
Its value is 89.26 and 88.73.

What about the “Cellular activity in SCLCs” value ([2]; concentration 2.04576) of the same compound?
Its value is 89.83 and 90.11.

What about the “Cellular activity in SCLCs” value ([2]; concentration 3) of the same compound?
The value was 91.32 and 90.79.

And the “Cellular activity in SCLCs” value ([2]; concentration column prints 2.52288)?
The value was 91.56 and 90.89.

And the IC50 ([2]; Homo sapiens, NCI-H211, 72 h, 72 h treatment, nM, read-out: IC50, cellular activity in NCI-H211 (alamarBlue))?
The IC50 was 2 nM.

And the “fold more potent than JQ1” value ([2]; NCI-H211 and MDA-MB231 cells)?
The value was “about 50 fold”.

What about the “Cellular activity in TNBCs (MDA-MB231), alamarBlue” value (“Cellular activity in TNBCs” below) ([3]; concentration 0.15) of the same compound?
Its value is 49.81 and 46.95.

And the “Cellular activity in TNBCs” value ([3]; concentration 0.6)?
Its value is 80.07 and 80.02.

What about the “Cellular activity in TNBCs” value ([3]; concentration 1) of the same compound?
Its value is 86.71 and 86.28.

What about the “Cellular activity in TNBCs” value ([3]; concentration 1.5) of the same compound?
Its value is 87.88 and 89.64.

And the “Cellular activity in TNBCs” value ([3]; concentration 2)?
Its value is 89.68 and 91.47.

And the “Cellular activity in TNBCs” value ([3]; concentration 2.5)?
Its value is 90.92 and 92.15.

What about the “Cellular activity in TNBCs” value ([3]; concentration 3) of the same compound?
The value was 92.14 and 92.46.

And the “Cellular activity in TNBCs” value ([3]; concentration -0.3)?
The value was 13.41 and 13.25.

And the “Cellular activity in TNBCs” value ([3]; concentration -0.9)?
Its value is 6.42 and 8.37.

What about the IC50 ([3]; Homo sapiens, MDA-MB-231, 72 h, 72 h treatment, nM, read-out: IC50, cellular activity in MDA-MB231 (alamarBlue)) of the same compound?
Its IC50 is 1.6 nM.

What about the “effect on tumor growth” value (A375 human melanoma; A375 human melanoma, once daily (5 days on, 2 days off) 21 days, NHWD-870-HCl) of the same compound?
The value was “very strong tumor inhibitive effects”.

And the “activity and possible toxicity, Stille versus Suzuki coupling route” value (A375 human melanoma; A375 melanoma bearing mice, 2mg/kg orally once daily for 21 days)?
The value was “identical”.
